Measured values published in ChEMBL document CHEMBL1201862, “PubChem BioAssay data set” (2004).
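Protocol summary: plate cells (96-well), add compound at 5 concentrations, incubate 48 h, interpolate endpoints linearly. GI50 is the concentration that inhibits growth by half.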 Active and inactive are the calls of the source. Cut-off read from the data, not from the text of the source: active = GI50 up to about 1.1 µM and inactive = higher.

Tests used:
Experiment in all cases: DTP human tumour cell line panel, 48 h
[1] = tested on: A549
[2] = tested on: BT-549
[3] = tested on: CAKI-1
[4] = tested on: EKVX
[5] = tested on: HCT-15
[6] = tested on: HL-60
[7] = tested on: Hs-578T
[8] = tested on: MDA-MB-435
[9] = tested on: NCI-H23
[10] = tested on: NCI-H460
[11] = tested on: NCI/ADR-RES
[12] = tested on: OVCAR-8
[13] = tested on: RPMI-8226
[14] = tested on: SF-295
[15] = tested on: SK-MEL-5
[16] = tested on: SN12C
[17] = tested on: SNB-75
[18] = tested on: T47D
[19] = tested on: UACC-257
[20] = tested on: K562

Row | SMILES | GI50 [1] | GI50 [2] | GI50 [3] | GI50 [4] | GI50 [5] [µM] | GI50 [6] | GI50 [7] | GI50 [8] | GI50 [9] | GI50 [10] | GI50 [11] | GI50 [12] | GI50 [13] | GI50 [14] | GI50 [15] | GI50 [16] | GI50 [17] | GI50 [18] | GI50 [19] | GI50 [20]
1 | Cc1ccc(OC2CC(n3cnc4ncnc(Cl)c43)OC2Oc2ccc(C)cc2)cc1 (stereo not drawn) | 25.2 µM (inactive) | 25.4 µM (inactive) | 2.11 µM (inactive) | 33.3 µM (inactive) | 13.8 | 3.77 µM (inactive) | 21.8 µM (inactive) | 39.1 µM (inactive) | 24.8 µM (inactive) | 12.7 µM (inactive) | 18.8 µM (inactive) | 8.32 µM (inactive) | 2.81 µM (inactive) | 21.1 µM (inactive) | 18.5 µM (inactive) | 29.6 µM (inactive) | 15.6 µM (inactive) | 12.6 µM (inactive) | 44.8 µM (inactive) | 
2 | N#CC1(C#N)[C@@H]2CCC=C(Sc3ccccc3)[C@@H]21 | 23.4 µM (inactive) | 23 µM (inactive) | 13.6 µM (inactive) | 18.5 µM (inactive) | 17.7 | 8.59 µM (inactive) | > 100 µM (inactive) | 12.9 µM (inactive) |  | 19.5 µM (inactive) | 18.4 µM (inactive) | 16 µM (inactive) | 12.9 µM (inactive) | 16.5 µM (inactive) | 13.9 µM (inactive) | 16.4 µM (inactive) | 20.9 µM (inactive) | 22.1 µM (inactive) | 17.5 µM (inactive) | 6.71 µM (inactive)
3 | COc1ccc(C2SC(=N)Nc3c2c(C)nn3C(=O)c2ccncc2)cc1 (stereo not drawn) | > 100 µM (inactive) | > 100 µM (inactive) |  | > 100 µM (inactive) | > 100 | 87.1 µM (inactive) | > 100 µM (inactive) | 70.6 µM (inactive) | > 100 µM (inactive) | 42.3 µM (inactive) | > 100 µM (inactive) | > 100 µM (inactive) | 57.3 µM (inactive) | > 100 µM (inactive) | 45.7 µM (inactive) | > 100 µM (inactive) | > 100 µM (inactive) | 45.5 µM (inactive) | > 100 µM (inactive) | 64.7 µM (inactive)
4 | C(=C\c1cccc(/C=C/c2ccccn2)n1)/c1ccccn1 | > 100 µM (inactive) | 18.7 µM (inactive) | 50.7 µM (inactive) | > 100 µM (inactive) | > 100 | 72.4 µM (inactive) | 19.5 µM (inactive) | 83.8 µM (inactive) | 66.5 µM (inactive) | > 100 µM (inactive) | 39.2 µM (inactive) | 36.2 µM (inactive) | 43.6 µM (inactive) | 66.2 µM (inactive) | 48.4 µM (inactive) | 60.7 µM (inactive) | 37.4 µM (inactive) | 44.5 µM (inactive) | > 100 µM (inactive) | 47.8 µM (inactive)
5 | C[C@@H](CC(=O)OCc1ccccc1)OC1OC(COC(=O)C(C)(C)C)C(OC(=O)C(C)(C)C)C(OC(=O)C(C)(C)C)C1OC(=O)C(C)(C)C (stereo partly drawn) | > 100 µM (inactive) | > 100 µM (inactive) | > 100 µM (inactive) | > 100 µM (inactive) | > 100 | > 100 µM (inactive) | > 100 µM (inactive) | > 100 µM (inactive) | > 100 µM (inactive) | > 100 µM (inactive) | > 100 µM (inactive) | > 100 µM (inactive) | > 100 µM (inactive) | > 100 µM (inactive) | 5.28 µM (inactive) | > 100 µM (inactive) | > 100 µM (inactive) | > 100 µM (inactive) | > 100 µM (inactive) | > 100 µM (inactive)
6 | O=C(/N=C1/NCC(CN2CCN(c3ccccc3)CC2)O1)Nc1ccccc1 (stereo not drawn) | > 100 µM (inactive) | > 100 µM (inactive) | > 100 µM (inactive) | > 100 µM (inactive) | > 100 | > 100 µM (inactive) | > 100 µM (inactive) | > 100 µM (inactive) | > 100 µM (inactive) | > 100 µM (inactive) | > 100 µM (inactive) |  | > 100 µM (inactive) | > 100 µM (inactive) | > 100 µM (inactive) | > 100 µM (inactive) |  | > 100 µM (inactive) | > 100 µM (inactive) | > 100 µM (inactive)
7 | N#CCN1CCCN(CC#N)CCN(CC#N)CCCN(CC#N)CC1 | > 100 µM (inactive) | > 100 µM (inactive) | > 100 µM (inactive) |  |  | 43.8 µM (inactive) | > 100 µM (inactive) | > 100 µM (inactive) | > 100 µM (inactive) | > 100 µM (inactive) | > 100 µM (inactive) | > 100 µM (inactive) | 54.5 µM (inactive) | > 100 µM (inactive) | > 100 µM (inactive) | > 100 µM (inactive) | > 100 µM (inactive) | > 100 µM (inactive) | > 100 µM (inactive) | > 100 µM (inactive)
8 | CC1CC(Nc2ccc(Br)cc2)N(C(=O)c2ccc(Br)cc2)O1 (stereo not drawn) | 3.97 µM (inactive) | > 10 µM (inactive) | 4.61 µM (inactive) | > 10 µM (inactive) | 0.526 | 3.76 µM (inactive) | 8.3 µM (inactive) | 1.09 µM (active) | > 10 µM (inactive) | 7.48 µM (inactive) | 2.19 µM (inactive) | 7.4 µM (inactive) | 4.78 µM (inactive) | 2.42 µM (inactive) | > 10 µM (inactive) | 2.75 µM (inactive) | 8.28 µM (inactive) | 9.77 µM (inactive) | 4.46 µM (inactive) | 0.435 µM (active)
9 | Oc1ccc(O)c(CNc2ccc(C(O)C(F)(F)F)cc2)c1 (stereo not drawn) | 31.6 µM (inactive) | 12.1 µM (inactive) | 16 µM (inactive) | 14.5 µM (inactive) | 13.7 | 3.42 µM (inactive) | 41.2 µM (inactive) | 11.9 µM (inactive) | 21.4 µM (inactive) | 21.5 µM (inactive) | 8.43 µM (inactive) | 10.4 µM (inactive) |  | 16.4 µM (inactive) | 29.3 µM (inactive) | 18.1 µM (inactive) | 12.2 µM (inactive) | 18.1 µM (inactive) | 18.4 µM (inactive) | 11.9 µM (inactive)
10 | COc1ccc2c3c(c(=O)n(C)c2c1OC)C=CC(C)(C)O3 | 44.7 µM (inactive) | 22.1 µM (inactive) | 13.5 µM (inactive) | 23.9 µM (inactive) | 13.4 | 11.2 µM (inactive) | 23.5 µM (inactive) | 38.3 µM (inactive) | 22.8 µM (inactive) |  | 18 µM (inactive) | 23.9 µM (inactive) | 10 µM (inactive) | 36.7 µM (inactive) | 13.3 µM (inactive) | 12.7 µM (inactive) | 2.78 µM (inactive) | 25.8 µM (inactive) | 35.3 µM (inactive) | 
11 | Nc1nc(Nc2ccccc2)sc1C(=O)c1cccs1 | 14.2 µM (inactive) | 15.2 µM (inactive) | 14.4 µM (inactive) | 13.6 µM (inactive) | 10.8 | 3.57 µM (inactive) | 15.8 µM (inactive) | 15 µM (inactive) | 16.2 µM (inactive) | 10.4 µM (inactive) | 21.2 µM (inactive) | 21.1 µM (inactive) | 12.8 µM (inactive) | 21.8 µM (inactive) | 4.08 µM (inactive) | 16 µM (inactive) |  | 21.2 µM (inactive) | 17.7 µM (inactive) | 9.86 µM (inactive)
12 | CC1NC(C(=O)O)Cc2cc(O)c(O)cc21 (stereo not drawn) | > 100 µM (inactive) | > 100 µM (inactive) | > 100 µM (inactive) | > 100 µM (inactive) | > 100 | > 100 µM (inactive) | > 100 µM (inactive) | > 100 µM (inactive) | > 100 µM (inactive) | > 100 µM (inactive) | > 100 µM (inactive) | > 100 µM (inactive) | > 100 µM (inactive) | > 100 µM (inactive) | > 100 µM (inactive) | > 100 µM (inactive) |  | > 100 µM (inactive) | > 100 µM (inactive) | 
13 | CC(=O)Oc1ccc2c3c1[C@@H]1O[C@@H]1c1cccc(c1-3)[C@@H]1O[C@H]21 | 2.32 µM (inactive) | 1.87 µM (inactive) | 1.59 µM (inactive) | 2.02 µM (inactive) | 1.66 | 0.883 µM (active) | 2.87 µM (inactive) | 1.14 µM (inactive) | 1.63 µM (inactive) |  | 1.82 µM (inactive) | 1.54 µM (inactive) | 1.37 µM (inactive) | 1.94 µM (inactive) | 1.61 µM (inactive) | 1.6 µM (inactive) | 1.63 µM (inactive) | 2.14 µM (inactive) | 2.43 µM (inactive) | 
14 | O=C(NC(Cc1c[nH]cn1)C(=O)N1CCCC1)C1CCCC1 (stereo not drawn) | > 100 µM (inactive) | > 100 µM (inactive) | > 100 µM (inactive) | > 100 µM (inactive) | > 100 | > 100 µM (inactive) | 83.8 µM (inactive) | > 100 µM (inactive) | > 100 µM (inactive) | > 100 µM (inactive) | > 100 µM (inactive) | > 100 µM (inactive) | > 100 µM (inactive) | > 100 µM (inactive) | > 100 µM (inactive) | > 100 µM (inactive) | > 100 µM (inactive) | > 10 µM (inactive) |  | > 100 µM (inactive)
15 | CC(C)(C)C1=CC(O)(c2c3ccccc3c(C3(O)C=C(C(C)(C)C)C(=O)C(C(C)(C)C)=C3)c3ccccc23)C=C(C(C)(C)C)C1=O | > 100 µM (inactive) | > 100 µM (inactive) | > 100 µM (inactive) | > 100 µM (inactive) | > 100 | > 10 µM (inactive) | > 100 µM (inactive) | < 0.01 µM (active) | > 100 µM (inactive) |  | > 100 µM (inactive) | > 100 µM (inactive) | 58.3 µM (inactive) | > 100 µM (inactive) | > 100 µM (inactive) | > 100 µM (inactive) | 35.2 µM (inactive) | > 100 µM (inactive) | > 100 µM (inactive) | 81.8 µM (inactive)
